Experimental data taken from patent publication US8420654B2 (Eli Lilly and Company, priority 2008, dated 2013).

Assays:
hCB-1 [1] = molecular target: T1, hCB-1 (Homo sapiens, UniProt P21554); assay: hCB1-CHO agonist mode SPA GTP-γ-35S binding assay; type: biochemical; conditions: for EC50: human CB-1 CHO membranes, agonist mode (inverse agonism), read-out: hCB-1 SPA GTPγS CHO Membrane Agonist Relative EC50 inverse; for hCB-1 SPA GTPγS CHO Membrane Agonist % Relative Efficacy: normalized to full agonist methanandamide, below zero = inverse agonist
T1 construct: purchased Applied Cell Sciences, Rockville, Md; host or cells: CHO cells (membranes)
Method: (§1) Compounds of the present invention may be tested for functional activity at the CB-1 and CB-2 receptors in both agonist and antagonist modes using SPA (Scintillation Proximity Assay) based GTP-γ-^35S binding assays. All assay components are prepared in assay buffer (20 mM HEPES, 100 mM NaCl, 5 mM MgCl2, pH 7.4) at room temperature. Semi-log dilutions of test compound are prepared in assay buffer containing BSA (0.125% final conc.) for the agonist mode assays. For the antagonist mode assays, test compounds are prepared in the same manner but also include an 80% efficacious dose of a full agonist (methanandamide). GTP-γ^35S binding for the antagonist assay may be measured in a 96 well format using a modification of an antibody capture technique previously described. (DeLapp, N W, et al. (1999) J Pharmacol Exp Ther 289:946-955.) The CB-2 receptor agonist activity may be measured using a similar method using hCB2-Sf9 membranes. The CB-1 receptor agonist activity may be measured using a whole membrane capture technique using hCB1-CHO membranes. All incubations are done at room temperature.
hCB1-CHO membrane, GDP (1 μM final conc.), and saponin (10 ng/mL final conc., Sigma, St Louis, Mo.) are combined and prepared on ice as for the antagonist assays, above. Diluted test compounds, GTP-γ-^35S (500 nM final conc.) and membranes are combined in the assay plate and incubated for 30 min. Then 1 mg/well Wheatgerm Agglutinin SPA beads (GE Healthcare, Piscataway, N.J.) are added, plates are sealed and vortexed and incubate for 1 hr. before spinning and counting in the same fashion as for the antagonist assays, above.
(§2) Data are analyzed as follows: Background is subtracted from all wells. Percent agonist efficacy is determine by normalizing agonist/inverse agonist dose response data to the response obtained for a full agonist (methanandamide). Percent antagonist inhibition is calculated by first normalizing the data to the signal generated by a saturating concentration of the full agonist (methanandamide). Then the data are analyzed using a 4-parameter logistic reduced fit (Activity Base™ and XLFit3™ from IDBS, Emeryville, Calif.). Kb values are determined using a modification of the Cheng-Prusoff relationship: Kb=IC50/(1+[agonist]/EC50), where “IC50” is determined from a four parameter fit of displacement curves, “[agonist]” is the agonist challenge concentration (nM), and “EC50” is determined from a four parameter fit of a full agonist concentration response curve (Cheng and Prusoff 1973). Mean Kb values are calculated as a mean of at least three independent determinations±standard error of the mean (SEM). (Cheng Y C and Prusoff W H. (1973), Biochem Pharmacol 22:3099-3108.) Exemplified compounds are found to be potent CB-1 inverse agonists (Kb≦10 nM, typically <2 nM) and to be selective over the CB-2 receptor (Kb CB-2/Kb CB-1>500, typically >1000).

hCB-1 [2] = molecular target: T1, hCB-1; assay: hCB1-CHO antagonist mode SPA GTP-γ-35S binding assay; type: biochemical; conditions: human CB-1 CHO membranes, antagonist mode vs methanandamide; read-out: hCB-1 SPA GTPγS CHO Membrane Antagonist Kb
Method: as §1
(§3) hCB1-CHO and rCB1-CHO Antagonist Assays:
hCB1-CHO or rCB1-CHO membranes (Applied Cell Sciences, Rockville, Md.) and GDP (1 μM final) are added to ice cold assay buffer and homogenized. Diluted compounds, GTP-γ-^35S (500 nM final conc.) and membranes are added to wells of an assay plate and incubated for 30 min. at room temperature. Next, a mixture containing Nonidet P40 detergent (0.2% final conc.), rabbit polyclonal IgG Gαi-3 antibody (provided by Covance, Princeton, N.J.), and 1.25 mg anti-rabbit antibody scintillation proximity assay beads (GE Healthcare, Piscataway, N.J.) is added. The plates are sealed, vortexed, and incubated for an additional 2 hr. Plates are then centrifuged at 700×g for 10 min. and the radioactivity counted.
Data are analyzed as follows: Background is subtracted from all wells. […] Percent antagonist inhibition is calculated by first normalizing the data to the signal generated by a saturating concentration of the full agonist (methanandamide). Then the data are analyzed using a 4-parameter logistic reduced fit (Activity Base™ and XLFit3™ from IDBS, Emeryville, Calif.). Kb values are determined using a modification of the Cheng-Prusoff relationship: Kb=IC50/(1+[agonist]/EC50), where “IC50” is determined from a four parameter fit of displacement curves, “[agonist]” is the agonist challenge concentration (nM), and “EC50” is determined from a four parameter fit of a full agonist concentration response curve (Cheng and Prusoff 1973). Mean Kb values are calculated as a mean of at least three independent determinations±standard error of the mean (SEM). […]

CYP2D6 = molecular target: T2, CYP2D6 (Homo sapiens, UniProt P10635); assay: Human CYP fingerprinting, quinidine inhibitor; type: in vitro ADME; conditions: 4 μM, human liver microsomes, 30 min, quinidine 10 μM
T2 construct: pooled, mixed gender, human liver microsomes; from tissue; host or cells: pooled, mixed gender human liver microsomes
Method: (§4) CYP fingerprinting is well established technique and is used as an indication of potential risk of drug-drug interactions in the pharmaceutical sciences. Compounds of the present invention may be assayed by well known methods, essentially as follows: Compounds are incubated at 37° C. at a final concentration of 4 μM with pooled, mixed gender, human liver microsomes and 1 mM NADPH ([…]) (final conc.) for 0 and 30 min. without any CYP inhibitor and with each CYP inhibitor in separate incubations for 30 min. Each inhibitor is specific for an individual cytochrome P450. The specific inhibitors used for CYPs 2C9, 2D6 and 3A were sulfaphenazole, quinidine and ketoconazole, respectively. Ketoconazole (CYP3A) is made up at 25 mM in DMSO and then diluted in buffer to a final concetration of 10 μM. Quinidine (CYP2D6) is made up at 5 mM in 50/50 acetonitrile/water and then diluted in buffer to a final concetration of 10 μM. Sulfaphenazole (CYP2C9) is made up at 100 mM in DMSO and then diluted in buffer to a final concetration of 5 μM. Samples are analyzed by LC-MS in positive or negative electrospray mode using a Waters Acquity Ultra Performance LC coupled to a MicroMass Q-T of-2 mass spectrometer.
(§5) Data are analyzed using MetaboLynx™ version 4.1. With inhibitor present, a reduction in metabolite peak area of less than 30% (relative to the uninhibited control incubation) receives a designation of low risk of Drug Drug Interaction (DDI), a reduction in peak area between 30% and 70% receives a moderate risk of DDI and a reduction of more than 70% receives a high risk of DDI.

CYP3A = assay: Human CYP fingerprinting, ketoconazole inhibitor; type: in vitro ADME; conditions: 4 μM, human liver microsomes, 30 min, ketoconazole 10 μM
Method: as §4, §5

hCB-2 [3] = molecular target: T3, hCB-2 (Homo sapiens, UniProt P34972); assay: hCB2-Sf9 agonist mode SPA GTP-γ-35S binding assay; type: biochemical; conditions: human CB-2 Sf9 membranes, read-out: hCB-2 SPA GTPγS Sf9 Membrane Agonist Relative EC50
T3 construct: purchased Perkin Elmer, Boston, Mass; host or cells: Sf9 insect cells (membranes)
Method: as §1
The hCB2-5f9 assay is run essentially as for the hCB1-sf9 and hCB2-sf9 antagonist assays above, with no challenging agonist added. 1 μM (final conc.) GDP is added to the membrane solution and nonidet P40, anti-Gi-antibody, and SPA bead are added together in a cocktail.
as §2

CYP2C9 = molecular target: T4, CYP2C9 (Homo sapiens, UniProt P11712); assay: Human CYP fingerprinting, sulfaphenazole inhibitor; type: in vitro ADME; conditions: 4 μM, human liver microsomes, 30 min, sulfaphenazole 5 μM
T4 construct: pooled, mixed gender, human liver microsomes; from tissue; host or cells: pooled, mixed gender human liver microsomes
Method: as §4, §5

hCB-2 [4] = molecular target: T3, hCB-2; assay: hCB2-Sf9 antagonist mode SPA GTP-γ-35S binding assay; type: biochemical; conditions: human CB-2 Sf9 membranes, antagonist mode vs methanandamide; read-out: hCB-2 SPA GTPγS Sf9 Membrane Antagonist Kb
Method: as §1
hCB1-Sf9 and hCB2-Sf9 antagonist Assays:
hCB1-5f9 and hCB2-5f9 membranes (Perkin Elmer, Boston, Mass.) are prepared essentially as above with 1 μM (final conc.) GDP for hCB1-5f9 and 0.05 μM (final conc.) GDP for hCB2-5f9. The assay is run essentially as described for the CHO membranes above. Diluted membranes are pre-incubated with test compound for 15 min., which is followed by addition of GTP-γ-^35S and a further 35 min. incubation. Nonidet P40 and anti-Gi-antibody are added sequentially with a 15 min. incubation after each addition. The SPA beads are then added, the plates are sealed and vortexed, and then incubated at room temperature for 1 hr.
Data are analyzed as follows: Background is subtracted from all wells. Percent agonist efficacy is determine by normalizing agonist/inverse agonist dose response data to the response obtained for a full agonist (methanandamide). Percent antagonist inhibition is calculated by first normalizing the data to the signal generated by a saturating concentration of the full agonist (methanandamide). Then the data are analyzed using a 4-parameter logistic reduced fit (Activity Base™ and XLFit3™ from IDBS, Emeryville, Calif.). Kb values are determined using a modification of the Cheng-Prusoff relationship: Kb=IC50/(1+[agonist]/EC50), where “IC50” is determined from a four parameter fit of displacement curves, “[agonist]” is the agonist challenge concentration (nM), and “EC50” is determined from a four parameter fit of a full agonist concentration response curve (Cheng and Prusoff 1973). Mean Kb values are calculated as a mean of at least three independent determinations±standard error of the mean (SEM). […]

rCB-1 = molecular target: T5, rCB-1 (Rattus norvegicus, UniProt P20272); assay: rCB1-CHO antagonist mode SPA GTP-γ-35S binding assay; type: biochemical; conditions: rat CB-1 CHO membranes, antagonist mode vs methanandamide; read-out: rCB-1 SPA GTPγS CHO Membrane Antagonist Kb
T5 construct: purchased Applied Cell Sciences, Rockville, Md; host or cells: CHO cells (membranes)
Method: as §1, §3
hCB1-CHO or rCB1-CHO membranes (Applied Cell Sciences, Rockville, Md.) and GDP (1 μM final) are added to ice cold assay buffer and homogenized. […] Plates are then centrifuged at 700×g for 10 min. and the radioactivity counted.
Data are analyzed as follows: Background is subtracted from all wells. […] Percent antagonist inhibition is calculated by first normalizing the data to the signal generated by a saturating concentration of the full agonist (methanandamide). Then the data are analyzed using a 4-parameter logistic reduced fit (Activity Base™ and XLFit3™ from IDBS, Emeryville, Calif.). Kb values are determined using a modification of the Cheng-Prusoff relationship: Kb=IC50/(1+[agonist]/EC50), where “IC50” is determined from a four parameter fit of displacement curves, “[agonist]” is the agonist challenge concentration (nM), and “EC50” is determined from a four parameter fit of a full agonist concentration response curve (Cheng and Prusoff 1973). […]

T3 sequence (P34972 whole entry): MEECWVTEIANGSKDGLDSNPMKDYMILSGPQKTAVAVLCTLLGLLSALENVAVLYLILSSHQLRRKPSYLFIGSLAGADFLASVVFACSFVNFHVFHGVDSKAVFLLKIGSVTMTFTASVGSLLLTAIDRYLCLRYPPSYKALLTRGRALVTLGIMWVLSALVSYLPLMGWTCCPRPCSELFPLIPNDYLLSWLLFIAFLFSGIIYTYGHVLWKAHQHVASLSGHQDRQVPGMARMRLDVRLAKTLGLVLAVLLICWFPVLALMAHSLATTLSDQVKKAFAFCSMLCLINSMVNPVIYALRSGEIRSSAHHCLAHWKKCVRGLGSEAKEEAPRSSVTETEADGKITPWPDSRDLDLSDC
T1 sequence (P21554 whole entry): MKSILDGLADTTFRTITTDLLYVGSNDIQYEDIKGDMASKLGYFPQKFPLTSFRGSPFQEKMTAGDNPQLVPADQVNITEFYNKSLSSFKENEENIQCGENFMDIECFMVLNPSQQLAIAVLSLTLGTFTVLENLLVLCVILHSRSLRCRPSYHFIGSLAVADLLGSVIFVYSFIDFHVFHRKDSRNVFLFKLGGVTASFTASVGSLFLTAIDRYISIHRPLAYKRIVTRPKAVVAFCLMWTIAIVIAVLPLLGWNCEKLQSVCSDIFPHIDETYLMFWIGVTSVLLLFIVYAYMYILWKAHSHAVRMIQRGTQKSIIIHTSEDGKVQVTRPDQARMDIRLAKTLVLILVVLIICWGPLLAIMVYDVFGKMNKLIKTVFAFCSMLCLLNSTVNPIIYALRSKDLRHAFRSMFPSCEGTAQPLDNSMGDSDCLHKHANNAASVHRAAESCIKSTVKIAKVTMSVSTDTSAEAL
T4 sequence (P11712 whole entry): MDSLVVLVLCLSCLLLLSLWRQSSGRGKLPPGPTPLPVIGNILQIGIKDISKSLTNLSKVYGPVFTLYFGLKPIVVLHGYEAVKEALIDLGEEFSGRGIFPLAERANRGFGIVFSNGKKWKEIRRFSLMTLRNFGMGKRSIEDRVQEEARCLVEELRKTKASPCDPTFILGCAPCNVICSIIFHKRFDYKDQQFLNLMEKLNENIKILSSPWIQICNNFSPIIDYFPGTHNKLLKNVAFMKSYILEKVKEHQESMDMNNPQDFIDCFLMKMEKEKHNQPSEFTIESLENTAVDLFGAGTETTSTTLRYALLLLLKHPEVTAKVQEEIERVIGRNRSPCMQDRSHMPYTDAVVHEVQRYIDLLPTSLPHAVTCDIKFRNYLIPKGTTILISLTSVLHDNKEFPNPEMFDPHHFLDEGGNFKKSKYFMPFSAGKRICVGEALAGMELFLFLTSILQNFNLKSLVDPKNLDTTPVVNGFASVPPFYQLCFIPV
T2 sequence (P10635 whole entry): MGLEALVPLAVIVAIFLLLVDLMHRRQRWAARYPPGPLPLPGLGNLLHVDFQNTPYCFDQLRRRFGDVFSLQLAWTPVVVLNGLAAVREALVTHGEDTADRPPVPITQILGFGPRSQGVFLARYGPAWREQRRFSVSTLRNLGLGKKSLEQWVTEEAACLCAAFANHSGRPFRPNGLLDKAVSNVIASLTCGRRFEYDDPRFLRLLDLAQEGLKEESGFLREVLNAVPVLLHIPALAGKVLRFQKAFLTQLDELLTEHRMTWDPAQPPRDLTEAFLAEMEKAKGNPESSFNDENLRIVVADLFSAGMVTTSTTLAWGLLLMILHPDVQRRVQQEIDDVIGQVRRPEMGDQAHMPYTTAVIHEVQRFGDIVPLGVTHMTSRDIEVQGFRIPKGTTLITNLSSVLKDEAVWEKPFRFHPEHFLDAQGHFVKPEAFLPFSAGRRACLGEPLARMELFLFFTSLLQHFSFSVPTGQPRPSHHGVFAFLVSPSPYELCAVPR
T5 sequence (P20272 whole entry): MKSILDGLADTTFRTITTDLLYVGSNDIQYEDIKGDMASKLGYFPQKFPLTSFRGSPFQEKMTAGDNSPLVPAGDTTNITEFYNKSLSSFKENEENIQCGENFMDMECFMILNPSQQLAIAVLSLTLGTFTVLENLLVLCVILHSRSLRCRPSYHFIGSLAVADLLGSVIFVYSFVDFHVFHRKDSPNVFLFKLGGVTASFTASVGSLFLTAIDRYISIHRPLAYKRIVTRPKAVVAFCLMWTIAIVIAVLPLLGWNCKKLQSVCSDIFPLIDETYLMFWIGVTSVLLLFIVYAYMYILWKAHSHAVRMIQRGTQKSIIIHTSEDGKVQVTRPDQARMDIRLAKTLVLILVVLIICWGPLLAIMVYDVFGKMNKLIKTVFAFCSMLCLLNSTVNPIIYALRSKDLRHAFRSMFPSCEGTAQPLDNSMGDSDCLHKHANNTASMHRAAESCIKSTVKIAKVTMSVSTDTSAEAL

EC50 (hCB-1 [1])	hCB-1 SPA GTPγS CHO Membrane Agonist % Relative Efficacy (hCB-1 [1])	Kb (hCB-1 [2])	EC50 (hCB-2 [3])	Kb (hCB-2 [4])	Kb (rCB-1)	SMILES	Risk of Drug Drug Interaction (DDI) CYP2D6 (CYP2D6)	Risk of Drug Drug Interaction (DDI) CYP3A (CYP3A)	Risk of Drug Drug Interaction (DDI) CYP2C9 (CYP2C9)
2.39 nM	−108%	0.644 nM	> 10800 nM	> 10800 nM		CC(C)(N[C@@H]1C[C@H](c2cccc(OC(F)(F)F)c2)N(c2ccc(C(F)(F)F)cc2)C1=O)c1ccnc(C2CC2)n1 [Example 2, (3R,5R)-3-[1-(2-Cyclopropyl-pyrimidin-4-yl)-1-methyl-ethylamino]-5-(3-trifluoromethoxy-phenyl)-1-(4-trifluoromethyl-phenyl)-pyrrolidin-2-one]	low (a reduction in metabolite peak area of less than 30% (relative to the uninhibited control incubation) receives a designation of low risk of Drug Drug Interaction (DDI))	low (a reduction in metabolite peak area of less than 30% (relative to the uninhibited control incubation) receives a designation of low risk of Drug Drug Interaction (DDI))	low (a reduction in metabolite peak area of less than 30% (relative to the uninhibited control incubation) receives a designation of low risk of Drug Drug Interaction (DDI))
1.11 nM	−107%	0.916 nM	379 nM	397 nM	0.195 nM	CC(C)(N[C@@H]1C[C@H](c2cccc(F)c2)N(c2ccc(OC(F)(F)F)cc2)C1=O)c1ccnc(C(F)(F)F)n1 [Example 3, (3R,5R)-3-[1-Methyl-1-(2-trifluoromethyl-pyrimidin-4-yl)-ethylamino]-5-(3-fluoro-phenyl)-1-(4-trifluoromethoxy-phenyl)-pyrrolidin-2-one]	low (a reduction in metabolite peak area of less than 30% (relative to the uninhibited control incubation) receives a designation of low risk of Drug Drug Interaction (DDI))	low (a reduction in metabolite peak area of less than 30% (relative to the uninhibited control incubation) receives a designation of low risk of Drug Drug Interaction (DDI))	low (a reduction in metabolite peak area of less than 30% (relative to the uninhibited control incubation) receives a designation of low risk of Drug Drug Interaction (DDI))
